{"source": "patent US20210236575A1", "about": "(priority 2018, published 2021)", "key": {"[1]": {"target": "CB2R (Homo sapiens, UniProt P34972)", "sequence (P34972 whole entry)": "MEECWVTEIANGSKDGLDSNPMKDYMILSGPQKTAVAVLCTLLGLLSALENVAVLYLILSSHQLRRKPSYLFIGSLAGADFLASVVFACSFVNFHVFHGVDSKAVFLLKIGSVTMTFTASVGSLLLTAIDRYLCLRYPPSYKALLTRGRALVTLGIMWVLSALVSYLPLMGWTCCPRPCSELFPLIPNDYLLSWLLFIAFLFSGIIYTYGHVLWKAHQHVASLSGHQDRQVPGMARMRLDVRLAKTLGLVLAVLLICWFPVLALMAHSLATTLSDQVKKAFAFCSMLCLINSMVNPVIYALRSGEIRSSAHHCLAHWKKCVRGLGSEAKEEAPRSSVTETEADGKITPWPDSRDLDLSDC", "assay": "CB2R agonism assay, HEK293T-CB2 cells with CRE-Luc reporter, forskolin-stimulated", "settings": "for Conclusions: Is CB2R agonist effect observed? / Experiment 1 % of activity / Experiment 2 % of activity / Experiment 3 % of activity: THC 10 μM or THCA 10 μM alone; for Experiment 1 % of activity / Experiment 2 % of activity / Experiment 3 % of activity: forskolin = 100%"}, "[2]": {"target": "T1, CB1R (Homo sapiens, UniProt P21554)", "T1 construct": "expressed in transfected cells; host or cells: HEK293T (HEK293T-CB1), transiently co-transfected with CRE-luc reporter", "T1 sequence (P21554 whole entry)": "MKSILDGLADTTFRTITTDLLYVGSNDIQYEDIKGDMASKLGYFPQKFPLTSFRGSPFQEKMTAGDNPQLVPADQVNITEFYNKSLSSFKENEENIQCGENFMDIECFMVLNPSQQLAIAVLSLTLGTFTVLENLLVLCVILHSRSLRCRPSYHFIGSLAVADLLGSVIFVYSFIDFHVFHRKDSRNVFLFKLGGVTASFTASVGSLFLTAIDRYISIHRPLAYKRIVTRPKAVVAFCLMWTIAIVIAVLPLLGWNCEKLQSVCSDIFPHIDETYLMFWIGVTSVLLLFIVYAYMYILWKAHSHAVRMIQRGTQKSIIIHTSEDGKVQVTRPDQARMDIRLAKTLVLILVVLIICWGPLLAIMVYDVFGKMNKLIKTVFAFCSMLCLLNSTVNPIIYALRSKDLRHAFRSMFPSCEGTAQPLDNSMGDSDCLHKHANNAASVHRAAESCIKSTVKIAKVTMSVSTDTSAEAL", "assay_type": "cell-based"}, "[3]": {"target": "T1, CB1R", "assay": "cell-based"}, "[4]": {"system": "NF-κB", "assay": "NF-κB luciferase assay, TNFα-induced, NIH-3T3-KBF-Luc cells"}, "[5]": {"target": "T2, COX-2 (Homo sapiens, UniProt P35354)", "T2 sequence (P35354 18-604)": "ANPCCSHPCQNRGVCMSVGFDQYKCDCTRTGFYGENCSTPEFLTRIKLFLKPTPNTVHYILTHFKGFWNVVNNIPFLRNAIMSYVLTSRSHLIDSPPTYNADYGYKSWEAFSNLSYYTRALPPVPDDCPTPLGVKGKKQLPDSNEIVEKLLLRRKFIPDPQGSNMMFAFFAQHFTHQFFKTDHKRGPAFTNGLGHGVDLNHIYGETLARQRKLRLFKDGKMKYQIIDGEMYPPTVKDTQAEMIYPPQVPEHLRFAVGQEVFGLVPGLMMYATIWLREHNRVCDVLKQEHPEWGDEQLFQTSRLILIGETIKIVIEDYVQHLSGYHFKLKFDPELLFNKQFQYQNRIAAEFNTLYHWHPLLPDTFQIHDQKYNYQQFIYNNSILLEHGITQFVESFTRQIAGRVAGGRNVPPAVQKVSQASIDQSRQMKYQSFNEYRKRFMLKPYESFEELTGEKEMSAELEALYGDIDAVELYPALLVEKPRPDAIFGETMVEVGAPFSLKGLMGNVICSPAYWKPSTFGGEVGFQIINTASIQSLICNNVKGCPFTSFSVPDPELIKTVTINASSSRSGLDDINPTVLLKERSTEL", "settings": "Takeda et al 2008; cited from earlier work"}, "[6]": {"settings": "read-out: Experiment 1 % of activity"}, "[7]": {"settings": "read-out: Experiment 2 % of activity"}, "[8]": {"settings": "read-out: Experiment 3 % of activity"}, "[9]": {"settings": "THCA 10 μM or THC 10 μM alone, CP55940 = 100%"}, "[10]": {"settings": "THC 10 μM or CBD 10 μM alone, TNFα = 100%"}, "[11]": {"settings": "TNFα 30 ng/mL (control without inhibitor)"}}, "note": "Read-outs that look alike come from different tables or passages of the source.", "data": [{"molecule": "C=C[C@@]1(C)CC(=O)[C@]2(O)[C@@]3(C)[C@@H](O)CCC(C)(C)[C@@H]3[C@H](O)[C@H](OC(C)=O)[C@@]2(C)O1", "note": "[Forskolin]", "values": [{"measurement": "activity at 1 µM", "setting": "[1]; [6]", "result": 100, "unit": "%"}, {"measurement": "activity at 1 µM", "setting": "[1]; [7]", "result": 100, "unit": "%"}, {"measurement": "activity at 1 µM", "setting": "[1]; [8]", "result": 100, "unit": "%"}]}, {"molecule": "CCCCCc1cc2c(c(O)c1C(=O)O)[C@@H]1C=C(C)CC[C@H]1C(C)(C)O2", "note": "[THCA, tetrahydrocannabinolic acid]", "values": [{"measurement": "Conclusions: Is CB1R agonist effect observed?", "setting": "[2]; THCA 10 μM or THC 10 μM alone", "result": "Negative"}, {"measurement": "Experiment 1 Fold change", "setting": "[2]; THCA 10 μM or THC 10 μM alone", "result": 0.9, "unit": "fold"}, {"measurement": "Experiment 2 Fold change", "setting": "[2]; THCA 10 μM or THC 10 μM alone", "result": 0.8, "unit": "fold"}, {"measurement": "Experiment 3 Fold change", "setting": "[2]; THCA 10 μM or THC 10 μM alone", "result": 1.1, "unit": "fold"}, {"measurement": "Conclusions: Is CB1R antagonist effect observed?", "setting": "[3]; THCA 10 μM or THC 10 μM alone", "result": "Negative"}, {"measurement": "Experiment 1 % of activity", "setting": "[3]; [9]", "result": 116.7, "unit": "%"}, {"measurement": "Experiment 2 % of activity", "setting": "[3]; [9]", "result": 116.0, "unit": "%"}, {"measurement": "Experiment 3 % of activity", "setting": "[3]; [9]", "result": 56.4, "unit": "%"}, {"measurement": "Conclusions: Is CB2R agonist effect observed?", "setting": "[1]", "result": "Negative"}, {"measurement": "Experiment 1 % of activity", "setting": "[1]", "result": 115.6, "unit": "%"}, {"measurement": "Experiment 2 % of activity", "setting": "[1]", "result": 105.6, "unit": "%"}, {"measurement": "Experiment 3 % of activity", "setting": "[1]", "result": 124.6, "unit": "%"}]}, {"molecule": "COc1cc(/C=C/C(=O)CC(=O)/C=C/c2ccc(O)c(OC)c2)ccc1O", "note": "[Curcumin, diferuloylmethane (curcumin)]", "values": [{"measurement": "Conclusions: Is NF-κB inhibitor effect observed?", "setting": "[4]; Curcumin 5 μM, alone or + THC 10 μM or + CBD 10 μM", "result": "+ (positive result (activity ≤50%) are considered inhibitory of NF-κB activity)"}, {"measurement": "Conclusions: Is NF-κB inhibitor effect observed?", "setting": "[4]; Curcumin 10 μM, alone or + THC 10 μM or + CBD 10 μM", "result": "+ (positive result (activity ≤50%) are considered inhibitory of NF-κB activity)"}, {"measurement": "Conclusions: Is NF-κB inhibitor effect observed?", "setting": "[4]; Curcumin 15 μM, alone or + THC 10 μM or + CBD 10 μM", "result": "+ (positive result (activity ≤50%) are considered inhibitory of NF-κB activity)"}, {"measurement": "IC50", "setting": "[4]; read-out: anti-NF-κB IC50", "result": 3.91, "unit": "µM"}, {"measurement": "EC50", "setting": "[1]", "result": 5970, "unit": "µM"}]}, {"molecule": "C=C(C)[C@@H]1CCC(C)=C[C@H]1c1c(O)cc(CCCCC)c(C(=O)O)c1O", "note": "[CBDA, cannabidiolic acid]", "values": [{"measurement": "selectivity for COX-2 than COX-1 inhibition", "setting": "[5]", "result": 9, "unit": "fold"}]}, {"molecule": "CCCCCCC(C)(C)c1ccc([C@@H]2C[C@H](O)CC[C@H]2CCCO)c(O)c1", "note": "[CP]", "values": [{"measurement": "Conclusions: Is CB1R agonist effect observed?", "setting": "[2]", "result": "+ (key: +: positive result (CB1R activity ≥2.5-fold increase) are considered agonists of CB1R activity)"}, {"measurement": "Experiment 1 Fold change", "setting": "[2]", "result": 2.5, "unit": "fold"}, {"measurement": "Experiment 2 Fold change", "setting": "[2]", "result": 2.5, "unit": "fold"}, {"measurement": "Experiment 3 Fold change", "setting": "[2]", "result": 2.5, "unit": "fold"}, {"measurement": "Conclusions: Is CB1R antagonist effect observed?", "setting": "[3]", "result": "Negative"}, {"measurement": "activity at 5 µM", "setting": "[3]; [6]", "result": 100, "unit": "%"}, {"measurement": "activity at 5 µM", "setting": "[3]; [7]", "result": 100, "unit": "%"}, {"measurement": "activity at 5 µM", "setting": "[3]; [8]", "result": 100, "unit": "%"}]}, {"molecule": "CCCCCc1cc(O)c2c(c1)OC(C)(C)[C@@H]1CCC(C)=C[C@@H]21", "note": "[THC, tetrahydrocannabinol]", "values": [{"measurement": "Conclusions: Is NF-κB inhibitor effect observed?", "setting": "[4]; THC 10 μM or CBD 10 μM alone", "result": "Negative"}, {"measurement": "Experiment 1 % of activity", "setting": "[4]; [10]", "result": 122.2, "unit": "%"}, {"measurement": "Experiment 2 % of activity", "setting": "[4]; [10]", "result": 84.9, "unit": "%"}, {"measurement": "Experiment 3 % of activity", "setting": "[4]; [10]", "result": 88.8, "unit": "%"}, {"measurement": "Conclusions: Is CB2R agonist effect observed?", "setting": "[1]", "result": "Negative"}, {"measurement": "Experiment 1 % of activity", "setting": "[1]", "result": 54.7, "unit": "%"}, {"measurement": "Experiment 2 % of activity", "setting": "[1]", "result": 73.7, "unit": "%"}, {"measurement": "Experiment 3 % of activity", "setting": "[1]", "result": 60.3, "unit": "%"}]}, {"molecule": "TNFα", "values": [{"measurement": "Conclusions: Is NF-κB inhibitor effect observed?", "setting": "[4]; [11]", "result": "Negative"}, {"measurement": "Experiment 1 % of activity", "setting": "[4]; [11]", "result": 100.0, "unit": "%"}, {"measurement": "Experiment 2 % of activity", "setting": "[4]; [11]", "result": 100.0, "unit": "%"}, {"measurement": "Experiment 3 % of activity", "setting": "[4]; [11]", "result": 100.0, "unit": "%"}]}, {"molecule": "C=C(C)[C@@H]1CCC(C)=C[C@H]1c1c(O)cc(CCCCC)cc1O", "note": "[CBD, cannabidiol]", "values": [{"measurement": "Conclusions: Is CB1R antagonist effect observed?", "setting": "[3]; CBD 1 μM alone", "result": "Negative"}, {"measurement": "activity at 1 µM", "setting": "[3]; CBD 1 μM alone, CP55940 = 100%, read-out: Experiment 1 % of activity", "result": 61.3, "unit": "%"}, {"measurement": "activity at 1 µM", "setting": "[3]; CBD 1 μM alone, CP55940 = 100%, read-out: Experiment 2 % of activity", "result": 55.9, "unit": "%"}, {"measurement": "activity at 1 µM", "setting": "[3]; CBD 1 μM alone, CP55940 = 100%, read-out: Experiment 3 % of activity", "result": 57.4, "unit": "%"}, {"measurement": "Conclusions: Is NF-κB inhibitor effect observed?", "setting": "[4]; THC 10 μM or CBD 10 μM alone", "result": "Negative"}, {"measurement": "activity at 10 µM", "setting": "[4]; [6]", "result": 136, "unit": "%"}, {"measurement": "activity at 10 µM", "setting": "[4]; [7]", "result": 86.4, "unit": "%"}, {"measurement": "activity at 10 µM", "setting": "[4]; [8]", "result": 106, "unit": "%"}]}]}
